Laboratory results: ChEMBL document CHEMBL1909492, “Discovery of 1-arylcarbonyl-6,7-dimethoxyisoquinoline derivatives as glutamine fructose-6-phosphate amidotransferase (GFAT) inhibitors” (Bioorg Med Chem Lett, 2011)
Converted amounts (≈) assume the structure as drawn. The source made the active and inactive calls. The rule behind the calls is not given here.

What was measured:
[1] = Inhibition of GFAT-beta expressed in COS cells using […] as substrate
[2] = Photo-degradation of compound in DMSO at 1 mM after 2 hrs by HPLC/UV spectrophotometric analysis; format: physicochemical; conditions: read-out: Activity
[3] = target: T1, Glutamine--fructose-6-phosphate aminotransferase [isomerizing] 1 (Homo sapiens, UniProt Q06210); assay: Reversible inhibition of GFAT
T1 sequence (Q06210 whole entry): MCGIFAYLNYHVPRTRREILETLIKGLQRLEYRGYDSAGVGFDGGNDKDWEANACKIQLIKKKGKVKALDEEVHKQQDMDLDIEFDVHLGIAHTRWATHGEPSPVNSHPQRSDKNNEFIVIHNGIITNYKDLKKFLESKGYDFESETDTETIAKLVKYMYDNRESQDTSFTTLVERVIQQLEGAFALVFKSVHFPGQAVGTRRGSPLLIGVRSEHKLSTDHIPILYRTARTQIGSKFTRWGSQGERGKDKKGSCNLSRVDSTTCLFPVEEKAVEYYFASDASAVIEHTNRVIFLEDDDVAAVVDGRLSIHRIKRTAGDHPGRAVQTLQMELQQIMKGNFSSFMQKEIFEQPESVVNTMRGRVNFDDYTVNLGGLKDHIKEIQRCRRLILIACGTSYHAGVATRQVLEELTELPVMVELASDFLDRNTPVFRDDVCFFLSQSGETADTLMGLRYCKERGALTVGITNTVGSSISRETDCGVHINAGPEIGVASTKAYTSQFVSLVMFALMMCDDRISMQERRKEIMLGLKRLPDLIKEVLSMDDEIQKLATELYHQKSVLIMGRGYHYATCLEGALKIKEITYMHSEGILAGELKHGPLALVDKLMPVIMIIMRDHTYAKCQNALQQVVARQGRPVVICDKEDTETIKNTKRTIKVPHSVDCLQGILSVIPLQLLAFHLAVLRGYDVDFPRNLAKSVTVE

[4] = target: T1, Glutamine--fructose-6-phosphate aminotransferase [isomerizing] 1; assay: Irreversible inhibition of GFAT
[5] = Cmax in rat at 50 mg/kg, po; format: ADME, organism-based; set-up: dose 50 mg/kg, route oral; conditions: in vivo
[6] = Solubility of the compound at pH 6.4; format: physicochemical; conditions: buffer
[7] = tested on: Mus musculus; assay: Antidiabetic activity in fasted ob/ob mouse assessed as deduction of glucose excursion at 50 mg/kg, po at 4 hr and 1 hr prior to oral glucose challenge by oral glucose tolerance test; format: functional, organism-based; set-up: dose 50 mg/kg
[8] = Volume of distribution in rat at 10 mg/kg, iv; format: ADME, organism-based; set-up: dose 10 mg/kg, route intravenous; conditions: in vivo
[9] = Photo-degradation of compound in DMSO at 1 mM after 2 hrs by LC/MS analysis; format: physicochemical; conditions: read-out: Activity
[10] = Apparent permeability across human Caco2 cell membrane; format: ADME, cell-based; conditions: Caco-2
[11] = Photo-degradation of compound in solid state over years by HPLC analysis; format: physicochemical
[12] = Tmax in rat at 50 mg/kg, po; format: ADME, organism-based; set-up: dose 50 mg/kg, route oral; conditions: in vivo
[13] = target: T1, Glutamine--fructose-6-phosphate aminotransferase [isomerizing] 1; assay: Noncompetitive inhibition of GFAT in presence of fructose-6-phosphate
[14] = Half life in rat at 10 mg/kg, iv; format: ADME, organism-based; set-up: dose 10 mg/kg, route intravenous; conditions: in vivo
[15] = Photo-degradation of compound in DMSO exposed to daylight at 1 mM after 24 hrs by HPLC analysis; format: physicochemical; conditions: 1000 µM
[16] = Oral bioavailability in rat at 50 mg/kg; format: ADME, organism-based; conditions: in vivo
[17] = AUC in rat at 50 mg/kg, po; format: ADME, organism-based; set-up: dose 50 mg/kg, route oral; conditions: plasma
[18] = tested on: Mus musculus; assay: Antidiabetic activity in […] ob/ob mouse assessed decrease of glucose AUC at 50 mg/kg, po at 4 hr and 1 hr prior to oral glucose challenge by oral glucose tolerance test relative to control; format: functional; set-up: scale not given: the % may be the effect or the level left
[19] = AUC in rat at 10 mg/kg, iv; format: ADME, organism-based; set-up: dose 10 mg/kg, route intravenous; conditions: plasma
[20] = Lipophilicity, log D of the compound at pH 7.2; format: physicochemical; conditions: buffer
[21] = target: T1, Glutamine--fructose-6-phosphate aminotransferase [isomerizing] 1; assay: Competitive inhibition of GFAT in presence of glutamine
[22] = Clearance in rat at 10 mg/kg, iv; format: ADME, organism-based; set-up: dose 10 mg/kg, route intravenous; conditions: in vivo
[23] = target: T1, Glutamine--fructose-6-phosphate aminotransferase [isomerizing] 1; assay: Inhibition of GFAT using […] as substrate

IC50 [1] [nM]	SMILES	further results
> 100000	COc1cccc(C(O)c2ncc(C(=O)O)c3cc(OC)c(OC)cc23)c1 (centres undefined)	
> 100000	COc1cccc(C(=O)c2ncc(C(=O)O)c3cc(OC)ccc23)c1	
1900	COc1cc2c(CC(=O)O)cnc(C(=O)c3cc(OC(C)C)ccc3F)c2cc1OC	
> 100000	COc1cccc(C(=O)c2ncc(C(=O)O)c3cc(O)c(OC)cc23)c1	
> 100000	COc1ccc(C(=O)c2ncc(C(=O)O)c3cc(OC)c(OC)cc23)cc1	
9930	COc1cc2c(C(=O)O)cnc(C(=O)c3c(F)cccc3F)c2cc1OC	degraded at 2 h, 1000 µM [2]: 0%; inhibition [3]: Active
870	COc1ccc(F)c(C(=O)c2ncc(C(=O)O)c3cc(OC)c(OC)cc23)c1	degraded at 2 h, 1000 µM [2]: 25.4%
1100	COc1cc2c(CNC(C)=O)cnc(C(=O)c3cccc(OC(C)C)c3)c2cc1OC	
940	COc1cc2c(C(=O)O)cnc(C(=O)c3c(F)ccc(OC)c3F)c2cc1OC	
4330	COc1cc2c(CNS(=O)(=O)C(F)(F)F)cnc(C(=O)c3c(F)cccc3F)c2cc1OC	
> 100000	COc1cccc(C(=O)c2ncc(C(=O)O)c3ccc(OC)cc23)c1	
680	COc1ccc(F)c(C(=O)c2ncc(CNS(=O)(=O)C(F)(F)F)c3cc(OC)c(OC)cc23)c1	
800	CCOc1cccc(C(=O)c2ncc(-c3nn[nH]n3)c3cc(OC)c(OC)cc23)c1	
> 100000	COc1cccc(C(=O)c2ncc(C(=O)O)c3ccccc23)c1	
	COC(=O)/C=C/C(=O)NC[C@H](N)C(=O)O	IC50 [4]: 400 nM
830	CCOc1cccc(C(=O)c2ncc(C(=O)O)c3cc(OC)c(OC)cc23)c1	
900	COc1cc2c(CNS(C)(=O)=O)cnc(C(=O)c3cccc(OC(C)C)c3)c2cc1OC	
1000	COc1cc2c(CNS(=O)(=O)C(F)(F)F)cnc(C(=O)c3cccc(OC(C)C)c3)c2cc1OC	Cmax [5]: 112 µM; solubility [6]: 3 µg/mL (≈ 5.85 µM); Activity [7]: Active; Vd [8]: 0.4 L/kg; inhibition [3]: Active; degraded at 2 h, 1000 µM [9]: 30%; Papp [10]: 35.7 ×10⁻⁶ cm/s; Stability [11]: Stable; Tmax [12]: 1 h; Ki [13]: 300 nM; half-life [14]: 1.68 h; Stability [15]: Stable; bioavailability [16]: 91%; AUC [17]: 239 µg·h/mL; Activity [18]: >35%; AUC [19]: 52.3 µg·h/mL; logD [20]: 2.89; Ki [21]: 300 nM; clearance [22]: 3.2 mL/min/kg
720	COc1cc2c(C(=O)O)cnc(C(=O)c3cccc(OC(C)C)c3)c2cc1OC	degraded at 2 h, 1000 µM [2]: 75.9%
20000	COc1ccc(C(=O)c2ncc(C(=O)O)c3cc(OC)c(OC)cc23)cc1OC	
900	COc1cc2c(C(=O)O)cnc(C(=O)c3c(F)ccc(OC(C)C)c3F)c2cc1OC	
580	COc1cc2c(Cn3oc(=O)[nH]c3=O)cnc(C(=O)c3cccc(OC(C)C)c3)c2cc1OC	
1200	COc1cccc(C(=O)c2ncc(C(=O)O)c3cc(OC)c(OC)cc23)c1	
10000	COc1cc2c(C(=O)O)cnc(C(=O)c3ccccc3)c2cc1OC	
2500	COc1cc2c(C(=O)O)cnc(C(=O)c3cc(OC(C)C)ccc3F)c2cc1OC	degraded at 2 h, 1000 µM [2]: 22%
	COc1cc2ccnc3c2c(c1OC)NC=C3 [AAPTAMINE]	IC50 [23]: 120000 nM
820	COc1cc2c(CN3C(=O)CSC3=O)cnc(C(=O)c3cccc(OC(C)C)c3)c2cc1OC	
> 100000	COc1cccc(NC(=O)c2ncc(C(=O)O)c3cc(OC)c(OC)cc23)c1	
	N[C@@H](CNC(=O)CBr)C(=O)O	IC50 [4]: 150 nM
> 100000	COc1ccc(Cc2ncc(C(=O)O)c3cc(OC)c(OC)cc23)cc1OC	
